In ChEMBL document CHEMBL1201862, “PubChem BioAssay data set” (2004):
Active and inactive are the calls of the source.

Columns and labels:
[1] = HEK-293T viability loss after treatment – luminescence, T-cell screen hits, cytotoxicity control for TCR NF-kB inhibitor project, dose response (AID 489026); type: functional, cell-based;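 also: cells exposed to compound about 14 hours before the viability readout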
[2] = microbe, parasite or virus in culture; type: functional; conditions: Mycobacterium tuberculosis
[3] = molecular target: Voltage-dependent T-type calcium channel subunit alpha-1H (Homo sapiens, UniProt O95180); type: functional;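 also: channel activity triggered by adding a high calcium stimulation buffer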
Protein skinhead-1 = molecular target: T1, Protein skinhead-1 (Caenorhabditis elegans, UniProt P34707); type: functional
T1 sequence (P34707 whole entry): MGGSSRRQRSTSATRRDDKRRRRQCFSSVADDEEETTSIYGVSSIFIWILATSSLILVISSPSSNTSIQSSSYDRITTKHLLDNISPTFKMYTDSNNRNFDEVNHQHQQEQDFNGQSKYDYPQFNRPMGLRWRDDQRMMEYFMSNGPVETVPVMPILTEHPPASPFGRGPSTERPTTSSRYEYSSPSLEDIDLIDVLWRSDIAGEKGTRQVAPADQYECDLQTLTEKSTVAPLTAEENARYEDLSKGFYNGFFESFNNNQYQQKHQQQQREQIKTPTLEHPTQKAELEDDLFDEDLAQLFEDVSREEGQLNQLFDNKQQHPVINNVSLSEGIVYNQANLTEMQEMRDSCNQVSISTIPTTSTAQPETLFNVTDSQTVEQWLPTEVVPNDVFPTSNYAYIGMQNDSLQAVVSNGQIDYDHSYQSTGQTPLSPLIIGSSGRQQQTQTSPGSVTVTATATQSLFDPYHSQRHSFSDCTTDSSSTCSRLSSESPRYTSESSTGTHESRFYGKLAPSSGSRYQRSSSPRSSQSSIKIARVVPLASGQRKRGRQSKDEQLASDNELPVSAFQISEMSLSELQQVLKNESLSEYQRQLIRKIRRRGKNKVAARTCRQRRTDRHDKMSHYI

H9c2 = experiment: cells; type: functional, cell-based; conditions: Rattus norvegicus, H9c2, Myocardium;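 also: confirmatory concentration-response retest of ultra-high-throughput screening hits for modulation of myocardial damage; cell death induced by hydrogen peroxide oxidative stress; compound pretreatment for 60 min then peroxide exposure for 2 h; potency is for protecting the cells against peroxide damage rather than for killing them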
[4] = Luminescence Cell-Based Dose Response HTS to Identify Activators of Luciferase Translation or Activity in H4 […] Cells. [Related pubchem assays: 1829 (Project Summary), 1814 (Primary HTS)]; type: functional
Nonstructural protein 1 = Nonstructural protein 1 (Influenza A virus, UniProt Q194T2); type: functional, Influenza A virus (A/California/07/2009(H1N1))
[5] = Luminescence Cell-Based Dose Confirmation HTS to Identify Activators of 5'UTR Stem-Loop Driven Alpha-Synuclein mRNA Translation in H4 Neuroglioblastoma Cells. [Related pubchem assays: 1829 (Project Summary), 1814 (Primary HTS)]; type: functional
H4 = experiment: Luminescence Cell-Based Dose Response HTS to Identify Activators of 5'UTR Stem-Loop Driven Prion Protein mRNA Translation in H4 Neuroglioblastoma Cells. [Related pubchem assays: 1829 (Project Summary), 1814 (Primary HTS)]; type: functional; conditions: Homo sapiens
Cytochrome P450 2D6 = Cytochrome P450 2D6 (Homo sapiens, UniProt P10635);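 also: CYP2D6 member of a cytochrome P450 panel assay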
[6] = molecular target: T2, Carboxy-terminal domain RNA polymerase II polypeptide A small phosphatase 1 (Homo sapiens, UniProt Q9GZU7); experiment: CTDSP1 inhibitors, concentration-response, biochemical, absorbance readout, ultra-high-throughput screen actives (AID 540297); type: functional
T2 sequence (Q9GZU7 whole entry): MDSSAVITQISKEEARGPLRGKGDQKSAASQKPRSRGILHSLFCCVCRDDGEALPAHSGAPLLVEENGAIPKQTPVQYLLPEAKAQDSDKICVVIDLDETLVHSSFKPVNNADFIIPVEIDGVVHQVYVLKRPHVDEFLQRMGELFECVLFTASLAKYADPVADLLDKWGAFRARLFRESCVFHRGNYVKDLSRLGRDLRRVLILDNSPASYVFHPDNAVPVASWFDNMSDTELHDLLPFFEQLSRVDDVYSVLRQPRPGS

[7] = NIH3T3 cell viability loss – ATP luminescence, mouse fibroblasts, counter-screen, dose response (AID 2010); type: functional, cell-based;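 also: cells exposed to compound for about 90 hours before reading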
[8] = Trypanosoma cruzi growth suppression in host cells – NIH3T3 host cells, beta-gal luminescence, confirmation (AID 2044); type: functional, cell-based;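 also: intracellular parasites grown in NIH/3T3 mouse fibroblasts as host cells; luminescent beta-galactosidase reporter signal from transgenic T. cruzi replicating inside host cells; inhibitors lower the luminescence signal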
Cytochrome P450 2C19 = Cytochrome P450 2C19 (Homo sapiens, UniProt P33261); experiment: Cytochrome panel assay with activity outcomes. Panel member name: p450-cyp2c19 Compounds with AC50 equal or less than 10 uM are considered active; type: functional; conditions: read-out: AC50
Cytochrome P450 1A2 = molecular target: T3, Cytochrome P450 1A2 (Homo sapiens, UniProt P05177);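 also: PubChem cytochrome P450 panel assay, CYP1A2 panel member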
T3 sequence (P05177 whole entry): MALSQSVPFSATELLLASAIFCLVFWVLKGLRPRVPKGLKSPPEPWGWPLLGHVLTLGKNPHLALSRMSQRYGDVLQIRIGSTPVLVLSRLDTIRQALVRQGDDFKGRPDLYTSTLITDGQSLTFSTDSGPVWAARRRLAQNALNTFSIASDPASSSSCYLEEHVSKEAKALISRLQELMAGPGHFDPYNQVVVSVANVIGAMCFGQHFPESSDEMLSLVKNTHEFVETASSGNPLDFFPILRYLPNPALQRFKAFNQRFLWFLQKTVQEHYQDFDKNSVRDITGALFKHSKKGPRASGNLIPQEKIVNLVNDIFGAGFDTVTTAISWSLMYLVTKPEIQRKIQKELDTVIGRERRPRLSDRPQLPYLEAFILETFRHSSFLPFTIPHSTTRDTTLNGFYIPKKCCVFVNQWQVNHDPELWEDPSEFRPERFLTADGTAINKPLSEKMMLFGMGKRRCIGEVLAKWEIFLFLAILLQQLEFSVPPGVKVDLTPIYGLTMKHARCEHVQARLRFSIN

[9] = blockers of bursicon-stimulated LGR2 cAMP reporter – cell-based, HEK293, CRE-luciferase reporter, cherry pick, set 2, dose response (AID 743343); type: functional;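 also: transfected cells were stimulated with diluted bursicon conditioned medium after compound addition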
[10] = toxicity toward HepG2 liver cells – cell-based, plate reader, cherry-pick, antagonist series, cytotoxicity control, dose response (AID 743416); type: functional
[11] = blockade of melanocortin 4 receptor signaling – cell-based, plate reader, cherry pick, counter-screen for LGR2 antagonist project, dose response (AID 743444); type: functional;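 also: transfected HEK 293 cells stimulated with alpha-MSH peptide; potency of inhibitors of the alpha-MSH evoked signal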
INS1 = experiment: INS-1E survival protection against cytokine death – cell-based, luminescence, retest, dose response (AID 449756); type: functional; conditions: Rattus norvegicus;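 also: cell death triggered by IL-1 beta plus TNF-alpha plus IFN-gamma mixture; protective hits raise ATP signal compared with cytokine alone wells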
cells [12] = type: functional, cell-based
cells [13] = type: functional, cell-based; remark: listed apart in the source

Voltage-dependent T-type calcium channel subunit alpha-1H, sequence (O95180 whole entry): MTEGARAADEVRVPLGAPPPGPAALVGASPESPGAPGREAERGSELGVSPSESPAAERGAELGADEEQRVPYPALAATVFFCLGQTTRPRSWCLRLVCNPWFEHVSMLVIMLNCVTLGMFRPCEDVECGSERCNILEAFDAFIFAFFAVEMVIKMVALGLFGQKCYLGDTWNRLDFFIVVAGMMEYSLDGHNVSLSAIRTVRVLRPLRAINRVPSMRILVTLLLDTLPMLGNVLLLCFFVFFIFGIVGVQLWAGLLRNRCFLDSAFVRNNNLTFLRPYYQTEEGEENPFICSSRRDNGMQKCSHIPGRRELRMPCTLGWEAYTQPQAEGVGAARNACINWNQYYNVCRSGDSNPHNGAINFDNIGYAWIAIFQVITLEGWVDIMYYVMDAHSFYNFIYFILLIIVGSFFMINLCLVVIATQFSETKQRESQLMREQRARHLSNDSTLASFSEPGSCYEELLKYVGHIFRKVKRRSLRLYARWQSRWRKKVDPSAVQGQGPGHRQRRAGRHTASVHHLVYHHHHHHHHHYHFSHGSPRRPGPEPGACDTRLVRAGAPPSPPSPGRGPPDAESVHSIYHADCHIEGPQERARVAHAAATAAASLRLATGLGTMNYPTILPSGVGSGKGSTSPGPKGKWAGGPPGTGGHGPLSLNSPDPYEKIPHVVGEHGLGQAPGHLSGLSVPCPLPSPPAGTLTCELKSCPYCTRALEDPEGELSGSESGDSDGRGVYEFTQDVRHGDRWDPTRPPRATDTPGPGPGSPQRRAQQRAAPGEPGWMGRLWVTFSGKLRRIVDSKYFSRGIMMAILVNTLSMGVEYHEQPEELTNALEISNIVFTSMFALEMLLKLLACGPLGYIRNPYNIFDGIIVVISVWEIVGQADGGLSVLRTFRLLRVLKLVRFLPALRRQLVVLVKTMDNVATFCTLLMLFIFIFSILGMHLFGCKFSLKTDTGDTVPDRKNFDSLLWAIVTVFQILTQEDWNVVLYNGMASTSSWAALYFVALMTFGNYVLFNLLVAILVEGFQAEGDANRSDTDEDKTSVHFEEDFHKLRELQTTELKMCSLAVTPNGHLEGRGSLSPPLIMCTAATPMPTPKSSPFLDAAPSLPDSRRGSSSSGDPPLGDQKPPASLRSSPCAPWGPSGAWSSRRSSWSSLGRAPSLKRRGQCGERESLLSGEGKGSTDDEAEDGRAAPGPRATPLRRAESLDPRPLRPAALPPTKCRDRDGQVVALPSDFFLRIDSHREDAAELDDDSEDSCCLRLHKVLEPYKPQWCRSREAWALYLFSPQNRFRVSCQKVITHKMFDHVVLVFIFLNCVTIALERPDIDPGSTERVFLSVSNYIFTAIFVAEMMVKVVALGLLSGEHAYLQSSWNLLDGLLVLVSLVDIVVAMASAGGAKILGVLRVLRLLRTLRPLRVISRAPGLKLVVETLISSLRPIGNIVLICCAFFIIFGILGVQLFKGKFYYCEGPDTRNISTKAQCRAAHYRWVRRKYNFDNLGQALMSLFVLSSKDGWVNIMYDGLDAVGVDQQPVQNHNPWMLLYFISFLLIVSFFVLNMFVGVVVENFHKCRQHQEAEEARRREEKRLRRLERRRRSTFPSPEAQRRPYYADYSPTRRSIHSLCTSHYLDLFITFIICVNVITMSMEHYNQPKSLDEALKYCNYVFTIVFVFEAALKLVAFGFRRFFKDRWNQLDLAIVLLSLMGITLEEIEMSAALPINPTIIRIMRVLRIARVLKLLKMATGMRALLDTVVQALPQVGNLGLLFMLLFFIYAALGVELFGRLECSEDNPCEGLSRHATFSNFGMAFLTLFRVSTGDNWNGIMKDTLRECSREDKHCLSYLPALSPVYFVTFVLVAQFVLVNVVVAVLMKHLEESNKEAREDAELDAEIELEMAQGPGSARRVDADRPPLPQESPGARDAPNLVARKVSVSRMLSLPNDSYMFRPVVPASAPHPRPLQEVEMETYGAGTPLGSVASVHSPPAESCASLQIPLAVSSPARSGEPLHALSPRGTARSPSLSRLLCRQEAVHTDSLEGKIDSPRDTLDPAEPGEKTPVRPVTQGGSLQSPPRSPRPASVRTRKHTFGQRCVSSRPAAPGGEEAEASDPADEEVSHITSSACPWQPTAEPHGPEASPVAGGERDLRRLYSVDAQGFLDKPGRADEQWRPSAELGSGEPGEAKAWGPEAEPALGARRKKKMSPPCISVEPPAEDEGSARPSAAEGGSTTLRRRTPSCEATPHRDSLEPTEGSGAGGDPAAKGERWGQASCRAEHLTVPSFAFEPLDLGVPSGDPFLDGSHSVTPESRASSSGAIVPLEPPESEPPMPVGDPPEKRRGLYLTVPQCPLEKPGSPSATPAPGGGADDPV
Nonstructural protein 1, sequence (Q194T2 whole entry): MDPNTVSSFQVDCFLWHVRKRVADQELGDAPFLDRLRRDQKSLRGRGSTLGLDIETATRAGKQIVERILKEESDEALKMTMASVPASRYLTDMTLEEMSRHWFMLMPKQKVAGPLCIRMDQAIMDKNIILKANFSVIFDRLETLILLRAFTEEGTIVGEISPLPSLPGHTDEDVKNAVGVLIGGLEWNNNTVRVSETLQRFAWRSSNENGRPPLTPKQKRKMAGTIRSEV
Cytochrome P450 2D6, sequence (P10635 whole entry, the tested form may be a part): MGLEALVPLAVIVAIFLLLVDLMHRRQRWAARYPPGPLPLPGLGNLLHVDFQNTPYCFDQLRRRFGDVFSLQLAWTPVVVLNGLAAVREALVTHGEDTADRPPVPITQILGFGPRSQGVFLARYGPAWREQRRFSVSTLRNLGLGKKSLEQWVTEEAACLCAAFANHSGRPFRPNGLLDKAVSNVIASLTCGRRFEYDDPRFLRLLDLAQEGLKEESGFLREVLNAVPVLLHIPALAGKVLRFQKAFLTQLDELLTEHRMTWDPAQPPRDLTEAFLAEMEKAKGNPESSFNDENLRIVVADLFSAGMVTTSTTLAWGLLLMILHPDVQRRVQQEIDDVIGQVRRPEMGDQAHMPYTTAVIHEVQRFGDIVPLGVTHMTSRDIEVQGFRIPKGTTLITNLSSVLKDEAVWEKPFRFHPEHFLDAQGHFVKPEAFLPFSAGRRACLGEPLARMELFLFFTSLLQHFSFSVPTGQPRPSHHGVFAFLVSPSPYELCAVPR
Cytochrome P450 2C19, sequence (P33261 whole entry): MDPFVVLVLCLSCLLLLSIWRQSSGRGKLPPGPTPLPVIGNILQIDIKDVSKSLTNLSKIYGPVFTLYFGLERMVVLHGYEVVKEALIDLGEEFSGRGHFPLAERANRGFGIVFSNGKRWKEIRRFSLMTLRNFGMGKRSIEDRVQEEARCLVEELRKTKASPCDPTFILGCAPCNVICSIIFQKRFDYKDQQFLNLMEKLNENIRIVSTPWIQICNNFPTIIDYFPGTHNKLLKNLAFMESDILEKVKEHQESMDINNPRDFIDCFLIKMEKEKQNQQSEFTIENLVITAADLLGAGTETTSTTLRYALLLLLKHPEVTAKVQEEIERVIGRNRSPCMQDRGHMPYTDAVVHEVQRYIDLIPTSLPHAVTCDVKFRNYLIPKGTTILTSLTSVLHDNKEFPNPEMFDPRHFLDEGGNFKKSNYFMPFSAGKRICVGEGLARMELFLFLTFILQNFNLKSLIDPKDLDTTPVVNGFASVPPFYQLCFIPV

Question: With O=C(Nc1cccc2ccccc12)OC1C=CS(=O)(=O)C1 (configuration not stated) as the compound, how does the IC50 [1] read?
Answer: > 80 µM (inactive)

Question: With COc1ccc(-c2cc(C(=O)N(C)CC(=O)Nc3cccc(F)c3)c3ccccc3n2)cc1 as the compound, how does the CC50 [2] read?
Answer: 36.5 µM (active)

Question: For O=C(CN(Cc1ccccc1)C(=O)c1cc2c(s1)CCC2)NCc1cccs1, which EC50 [3] is on record?
Answer: 5.32 µM (active)

Question: With COC(=O)c1nc(-c2ccccc2)oc1N(C)C as the compound, how does the IC50 (Protein skinhead-1) read?
Answer: > 100 µM (inactive)

Question: For O=C(COc1ccccc1)Nc1nnc(-c2ccc(Cl)s2)o1, which EC50 [3] is on record?
Answer: 25.7 µM (active)

Question: With O=C(Oc1ccccc1)N1CCN(c2ccc(F)cc2)CC1 as the compound, how does the IC50 (Protein skinhead-1) read?
Answer: 78.7 µM (inactive)

Question: Which IC50 (H9c2) does the source give for COc1ccc(-c2cc(-c3nnc(COC(=O)c4ccncc4)o3)c3ccccc3n2)cc1OC here?
Answer: 9.82 µM (active)

Question: For S=C(NCc1ccccc1)NCC1COc2ccccc2O1 (configuration not stated), which EC50 [3] is on record?
Answer: 3.17 µM (active)

Question: Which IC50 (Protein skinhead-1) does the source give for C=CCNc1ncnc2sc(SC)nc12 here?
Answer: > 100 µM (inactive)

Question: Which IC50 [1] does the source give for Cc1ccc(C)c(CSc2nc(O)c3c[nH]nc3n2)c1 here?
Answer: > 80 µM (inactive)

Question: Which IC50 (Protein skinhead-1) does the source give for O=C(Nc1nccs1)c1ccc(-c2ccccc2[N+](=O)[O-])o1 here?
Answer: > 100 µM (inactive)

Question: Which IC50 [1] does the source give for CC#CC(=O)N1CCC(n2nccc2NC(=O)c2ccc3c(c2)OCO3)CC1 here?
Answer: > 80 µM (inactive)

Question: For O=C(CN1C(=O)COc2ccccc21)Nc1ccc(F)cc1, which EC50 [4] is on record?
Answer: 13.8 µM (active)

Question: And the IC50 (Nonstructural protein 1)?
Answer: 3.73 µM (active)

Question: What about the EC50 [5] of the same compound?
Answer: 11.9 µM (active)

Question: And the EC50 (H4)?
Answer: 113 µM (active)

Question: For c1ccc(CN2c3ccccc3-c3nc4ccccc4n3C2c2ccccn2)cc1 (configuration not stated), which AC50 (Cytochrome P450 2D6) is on record?
Answer: 15.8 µM (inconclusive)

Question: What about the EC50 [3] of the same compound?
Answer: 1.94 µM (active)

Question: With Cc1cccc2sc(NC(=O)C3CCN(S(=O)(=O)c4cc([N+](=O)[O-])ccc4Cl)CC3)nc12 as the compound, how does the IC50 [6] read?
Answer: 3.44 µM (active)

Question: What about the EC50 [7] of the same compound?
Answer: > 30 µM (not active)

Question: And the EC50 [8]?
Answer: 0.63 µM (active)

Question: For Oc1ccccc1C=NNC(=S)Nc1ccc(F)cc1, which IC50 (Nonstructural protein 1) is on record?
Answer: 12.7 µM (active)

Question: Which AC50 (Cytochrome P450 2C19) does the source give for COc1cccc(/C=N/NC(=O)c2nc(-c3ccccc3)cc(-c3ccccc3)n2)c1 here?
Answer: 0.794 µM (inconclusive)

Question: And the AC50 (Cytochrome P450 1A2)?
Answer: 3.16 µM (inconclusive)

Question: What about the IC50 (H9c2) of the same compound?
Answer: > 79 µM (inactive)

Question: What does the source list for N#C[C@@H]1[C@H](c2ccc(C#Cc3cccc(F)c3)cc2)[C@@H](CO)N1C(=O)C1CCCC1?
Answer: AC50 [9]: 16.5 µM (active); AC50 [10]: 27.1 µM (active); AC50 [11]: 8.4 µM (active)

Question: Which IC50 [1] does the source give for CCN(CC)c1ccc(/C=N/NC(=O)c2cccc(S(=O)(=O)Nc3ccccc3OC)c2)c(O)c1 here?
Answer: > 80 µM (inactive)

Question: What about the AC50 (INS1) of the same compound?
Answer: 0.237 µM (active)

Question: And the EC50 (cells [12])?
Answer: 85.3 µM (active)

Question: And the EC50 (cells [13])?
Answer: 2.89 µM (active)
